From publication PMC7247561, “Characterization of ABC Transporters in EpiAirway™, a Cellular Model of Normal Human Bronchial Epithelium” (International Journal of Molecular Sciences, 2020)
Like-named read-outs stand apart in the source and are kept apart here.

Columns and labels:
BCRP [1] = biological target: T1, BCRP (Homo sapiens, UniProt Q9UNQ0)
T1 sequence (Q9UNQ0 1-655): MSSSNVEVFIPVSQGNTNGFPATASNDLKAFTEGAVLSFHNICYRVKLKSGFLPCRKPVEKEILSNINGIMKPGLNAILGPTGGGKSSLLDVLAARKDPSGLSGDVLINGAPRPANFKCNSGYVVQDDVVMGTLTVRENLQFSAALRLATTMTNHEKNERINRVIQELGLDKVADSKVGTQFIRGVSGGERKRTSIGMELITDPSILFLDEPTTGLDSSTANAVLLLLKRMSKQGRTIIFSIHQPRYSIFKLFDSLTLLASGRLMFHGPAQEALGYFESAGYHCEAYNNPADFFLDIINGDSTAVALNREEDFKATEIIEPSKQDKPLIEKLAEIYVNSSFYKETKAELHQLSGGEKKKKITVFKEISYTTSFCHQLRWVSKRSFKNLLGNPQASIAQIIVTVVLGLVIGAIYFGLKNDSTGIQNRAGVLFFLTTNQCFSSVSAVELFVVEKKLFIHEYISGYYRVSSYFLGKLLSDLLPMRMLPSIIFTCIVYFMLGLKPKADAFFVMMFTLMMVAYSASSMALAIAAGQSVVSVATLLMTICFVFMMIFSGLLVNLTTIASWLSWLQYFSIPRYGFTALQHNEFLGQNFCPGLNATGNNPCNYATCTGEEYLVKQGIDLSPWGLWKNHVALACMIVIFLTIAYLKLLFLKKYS
Method: (§2) The activity of ABC transporters was assessed by measuring the apical-to-basolateral (AB) and basolateral-to-apical (BA) fluxes of specific substrates. To this aim, cell monolayers were washed twice in HBSS and equilibrated for 30 min in the same solution (pH 7.4, 37 °C). […] Aliquots of the solution in the receiver chamber were collected after 0 min, 30 min, 60 min and 120 min and replaced with fresh HBSS. The fluxes were determined by measuring fluorescence with an EnSpire® Multimode Plate Reader (Perkin Elmer), or radioactivity with MicroBeta^2 liquid scintillation spectrometer. Data obtained were employed to calculate the apparent permeability coefficient (Papp). The integrity of cell monolayers, verified by measuring TEER before and after the experiment, was not modified by the experimental procedures.
(§3) Efflux ratio (ER) was calculated as the ratio between Papp measured for BA and AB fluxes, while uptake ratio (UR) was calculated as the ratio between Papp measured for AB and BA fluxes.

BCRP [2] = biological target: T1, BCRP; experiment: BCRP activity, bidirectional transport of 3H-mitoxantrone in EpiAirway; details: 21 d at ALI, 10 µM Febuxostat
Method: as §2, §3

MDR1 [3] = experiment: MDR1 activity, bidirectional transport of Rhodamine 123 in EpiAirway; assay type: in vitro ADME, human
MDR1 [4] = biological target: T2, MDR1 (Homo sapiens, UniProt P08183); experiment: MDR1 activity, bidirectional transport of Rhodamine 123 in Calu-3; assay type: in vitro ADME; details: 1 µM Rhodamine 123
T2 construct: MDR1 in Calu-3 cultures is expressed and operative on the apical membrane of the cells only after 21 d at ALI; endogenous in cells; host or cells: Calu-3 cells at air-liquid interface, 8 d or 21 d
T2 sequence (P08183 whole entry): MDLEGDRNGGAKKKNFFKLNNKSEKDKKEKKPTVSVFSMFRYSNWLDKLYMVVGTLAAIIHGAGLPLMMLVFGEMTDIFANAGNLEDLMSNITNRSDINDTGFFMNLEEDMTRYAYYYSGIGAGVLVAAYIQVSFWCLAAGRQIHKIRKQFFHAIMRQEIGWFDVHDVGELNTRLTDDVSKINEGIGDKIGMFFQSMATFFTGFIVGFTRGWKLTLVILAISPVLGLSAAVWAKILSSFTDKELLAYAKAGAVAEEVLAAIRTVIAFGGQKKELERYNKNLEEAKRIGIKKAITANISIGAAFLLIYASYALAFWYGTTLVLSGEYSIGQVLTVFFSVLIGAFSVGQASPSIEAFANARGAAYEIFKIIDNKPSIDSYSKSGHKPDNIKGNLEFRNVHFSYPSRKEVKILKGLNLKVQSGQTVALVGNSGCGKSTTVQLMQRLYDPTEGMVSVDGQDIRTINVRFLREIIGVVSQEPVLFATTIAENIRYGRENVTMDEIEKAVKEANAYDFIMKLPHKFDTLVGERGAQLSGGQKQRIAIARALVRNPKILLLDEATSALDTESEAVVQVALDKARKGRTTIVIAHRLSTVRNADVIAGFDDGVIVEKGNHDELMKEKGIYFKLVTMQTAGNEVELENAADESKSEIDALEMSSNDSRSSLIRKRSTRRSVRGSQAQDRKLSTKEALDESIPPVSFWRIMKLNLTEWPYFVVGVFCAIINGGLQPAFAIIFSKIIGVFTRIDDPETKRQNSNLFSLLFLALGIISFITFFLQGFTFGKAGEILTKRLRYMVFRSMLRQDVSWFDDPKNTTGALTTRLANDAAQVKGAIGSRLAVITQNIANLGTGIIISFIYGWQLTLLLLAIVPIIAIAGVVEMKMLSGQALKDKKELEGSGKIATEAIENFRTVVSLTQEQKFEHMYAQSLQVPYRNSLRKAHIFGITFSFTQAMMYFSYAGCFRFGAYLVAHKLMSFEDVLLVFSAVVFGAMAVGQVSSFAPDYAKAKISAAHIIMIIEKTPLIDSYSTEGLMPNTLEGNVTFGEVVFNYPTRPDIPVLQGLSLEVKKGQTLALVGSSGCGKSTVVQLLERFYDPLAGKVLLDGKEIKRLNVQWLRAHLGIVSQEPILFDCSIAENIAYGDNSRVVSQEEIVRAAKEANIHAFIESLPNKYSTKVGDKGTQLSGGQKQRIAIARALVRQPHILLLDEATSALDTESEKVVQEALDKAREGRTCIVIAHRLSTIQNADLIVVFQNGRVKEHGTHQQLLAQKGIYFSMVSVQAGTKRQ
Method: as §2, §3

MDR1 (P-glycoprotein) = biological target: T3, MDR1 (P-glycoprotein) (Homo sapiens, UniProt P08183); experiment: as above; assay type: in vitro ADME; details: human, Calu-3, 21 d at ALI
T3 construct: MDR1 in Calu-3 cultures is expressed and operative on the apical membrane of the cells only after 21 d at ALI; endogenous in cells; host or cells: Calu-3 cells at air-liquid interface, 8 d or 21 d
T3 sequence (P08183 whole entry): as above
Method: as §2, §3

EpiAirway™ = assay type: in vitro ADME, human
Method: (§1) In parallel, the paracellular and transcellular permeability of cultures to solutes was assessed by monitoring the apical-to-basolateral fluxes of ^14C-mannitol and ^3H-propranolol, respectively. In detail, cell monolayers were washed and incubated for 30 min in Hank’s Balanced Salt Solution (HBSS, pH 7.4, 37 °C); HBSS containing ^14C-mannitol (1 µCi/mL, corresponding to 20 µM) or ^3H-propranolol (3 µCi/mL; 10 µM) was then added to the apical side (donor chamber) of the monolayers.

Calu-3 cells = experiment: Paracellular and transcellular permeability (apical-to-basolateral Papp) in Calu-3; assay type: in vitro ADME, human; details: Calu-3, after 21 d at ALI, AB flux, 20 µM 14C-mannitol
Method: as §1

For `Cc1nc(-c2ccc(OCC(C)C)c(C#N)c2)sc1C(=O)O` [Febuxostat], the “effect of inhibitor on Papp for AB flux of 3H-mitoxantrone” value (BCRP [1]) was “modest but significant decrease”, the “effect of inhibitor on BA flux of 3H-mitoxantrone” value (BCRP [2]) was “remained almost unaffected” and the “effect of inhibitor on uptake ratio (UR) of 3H-mitoxantrone” value (BCRP [2]) was “slight decrease”.
In the case of `C/C=C/C[C@@H](C)C(=O)[C@H]1C(=O)N[C@@H](C(C)C)C(=O)N(C)CC(=O)N(C)[C@@H](CC(C)C)C(=O)N[C@@H](C(C)C)C(=O)N(C)[C@@H](CC(C)C)C(=O)N[C@@H](C)C(=O)N[C@H](C)C(=O)N(C)[C@@H](CC(C)C)C(=O)N(C)[C@@H](CC(C)C)C(=O)N(C)[C@@H](C(C)C)C(=O)N1C` [PSC833], the “effect of inhibitor on Rhodamine 123 fluxes” value (MDR1 [3]; 8 d and 21 d at ALI, 10 µM PSC833) is reported as “lack of inhibition”.
`COC(=O)c1ccccc1-c1c2ccc(=N)cc-2oc2cc(N)ccc12` [Rhodamine 123] was tested, and the “Papp for AB vs BA fluxes” value (MDR1 [4]; Calu-3, 8 d at ALI) was “comparable”, the “Papp for BA transport vs AB flux” value (MDR1 [4]; Calu-3, 21 d at ALI) was “hugely higher than that of AB flux” and the efflux ratio at 120 min, 1 µM (MDR1 (P-glycoprotein); pH 7.4, probe Rhodamine 123, with PSC833 10 µM, 1 µM Rhodamine 123, + 10 µM PSC833, read-out: efflux ratio (ER) in the presence of the inhibitor) was 2.8. The efflux ratio at 120 min, 1 µM (MDR1 (P-glycoprotein); pH 7.4, probe Rhodamine 123, 1 µM Rhodamine 123, control (no inhibitor), read-out: efflux ratio (ER)) was 7, the “AB vs BA fluxes” value (MDR1 [3]; 8 d and 21 d at ALI, 1 µM Rhodamine 123) was “no differences” and the “values of Papp and ER” value (MDR1 [3]; Rhodamine 123 fluxes) was “very low”.
For `OC[C@@H](O)[C@@H](O)[C@H](O)[C@H](O)CO` [mannitol], the “mannitol permeability (Papp), 8 d vs 21 d of culture” value (EpiAirway™) was “no difference” and the “Papp for mannitol, 21 d vs 8 d of culture” value (Calu-3 cells) was “decreased”.
With `CC(C)NCC(O)COc1cccc2ccccc12` (stereo not shown) [propranolol] the “propranolol permeability (Papp), EpiAirway vs Calu-3” value (EpiAirway™; human, 120 min, 10 µM, pH 7.4) was “slightly higher than that of Calu-3 cells”.
